Structures are written as SMILES. Bounds are passed on as bounds.

A word on the IC50: it is the concentration that gives 50% inhibition. A lower IC50 goes with greater potency in that assay.

Sequence of Genome polyprotein (P26664 1027-1657 limits assumed): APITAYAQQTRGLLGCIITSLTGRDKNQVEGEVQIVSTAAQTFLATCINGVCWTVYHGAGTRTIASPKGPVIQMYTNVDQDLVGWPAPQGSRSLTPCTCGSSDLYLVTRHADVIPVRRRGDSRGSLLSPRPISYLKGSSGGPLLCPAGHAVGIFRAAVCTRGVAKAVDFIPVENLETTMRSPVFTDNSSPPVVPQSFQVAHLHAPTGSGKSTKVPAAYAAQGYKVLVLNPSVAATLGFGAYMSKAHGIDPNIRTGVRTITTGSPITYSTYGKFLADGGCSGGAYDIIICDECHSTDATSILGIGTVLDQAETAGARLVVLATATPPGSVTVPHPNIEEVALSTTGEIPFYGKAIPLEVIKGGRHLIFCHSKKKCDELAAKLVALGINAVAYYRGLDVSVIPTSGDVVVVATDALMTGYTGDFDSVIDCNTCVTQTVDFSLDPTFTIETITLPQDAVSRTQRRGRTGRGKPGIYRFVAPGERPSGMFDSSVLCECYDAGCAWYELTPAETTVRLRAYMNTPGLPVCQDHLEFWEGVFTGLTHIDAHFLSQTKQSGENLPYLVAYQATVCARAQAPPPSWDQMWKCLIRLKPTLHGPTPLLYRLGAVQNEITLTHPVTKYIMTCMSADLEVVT

This assay addresses Genome polyprotein (Hepatitis C virus genotype 1a (isolate 1) (HCV), UniProt P26664). The assay can be described thus: Inhibition of Hepatitis C virus NS3 protease in vitro.
Turning to `CC(C)[C@H](O)C(=O)N1C[C@H](OC2CCCCC2)C[C@H]1C(=O)N[C@@H](CC(F)F)C(=O)NCCc1c(F)cc(C(=O)O)cc1F`, half-maximal inhibition (IC50) required 32 µM. Then `CC(C)COC(=O)N[C@H](C(=O)N1C[C@H](c2ccccc2)C[C@H]1C(=O)N[C@@H](CC(F)F)C(=O)NCCc1c(F)cc(C(=O)O)cc1F)C(C)C`, with 0.9 µM; and `CC(C)[C@H](O)C(=O)N1C[C@H](OCc2ccc(Br)cc2)C[C@H]1C(=O)N[C@@H](CC(F)F)C(=O)NCCc1c(F)cc(C(=O)O)cc1F`, with 12 µM.

`CC(C)C[C@H](NC(=O)[C@H](O)c1ccccc1)C(=O)N[C@@H](CC(F)F)C(=O)C(=O)O` gave a half-maximal inhibitory concentration (IC50) of 3 µM.

`O=C(O)c1cc(F)c(CCNC(=O)[C@H](CC(F)F)NC(=O)[C@@H]2C[C@@H](c3ccccc3)CN2C(=O)CC2CCCC2)c(F)c1` displayed an IC50 of 34 µM.

With `O=C(O)c1cc(F)c(CCNC(=O)[C@H](CC(F)F)NC(=O)[C@@H]2C[C@@H](c3ccccc3)CN2C(=O)[C@@H](O)C2CCCCC2)c(F)c1`, the IC50 was found to be 14 µM. Under `O=C(O)c1cc(F)c(CCNC(=O)[C@H](CC(F)F)NC(=O)[C@@H]2C[C@@H](c3ccccc3)CN2C(=O)[C@@H](O)C2CCCC2)c(F)c1` stands 13 µM. Then `O=C(O)c1cc(F)c(CCNC(=O)[C@H](CC(F)F)NC(=O)[C@@H]2C[C@@H](c3ccccc3)CN2C(=O)C(O)Cc2ccccc2)c(F)c1` (stereo partly specified), with greater than 100 µM. Under `CC(C)[C@H](O)C(=O)N1C[C@H](OCc2ccccc2)C[C@H]1C(=O)N[C@@H](CC(F)F)C(=O)NCCc1c(F)cc(C(=O)O)cc1F` stands 27 µM; under `CCC(CC)C(O)C(=O)N1C[C@H](c2ccccc2)C[C@H]1C(=O)N[C@@H](CC(F)F)C(=O)NCCc1c(F)cc(C(=O)O)cc1F` (stereo partly specified), 50 µM. `O=C(O)c1cc(F)c(CCNC(=O)[C@H](CC(F)F)NC(=O)[C@@H]2C[C@@H](c3ccccc3)CN2C(=O)[C@@H](O)c2ccccc2)c(F)c1` returned a half-maximal inhibitory concentration (IC50) greater than 100 µM. Then `O=C(O)c1cc(F)c(CCNC(=O)[C@H](CC(F)F)NC(=O)[C@@H]2C[C@@H](c3ccccc3)CN2C(=O)[C@H](O)C2CCCC2)c(F)c1`, with 62 µM; and `CC(C)[C@H](O)C(=O)N1C[C@H](OCCCc2ccccc2)C[C@H]1C(=O)N[C@@H](CC(F)F)C(=O)NCCc1c(F)cc(C(=O)O)cc1F`, with 11 µM. Then `CC(C)COC(=O)N[C@H](C(=O)N[C@@H](CC(C)C)C(=O)N[C@@H](CC(F)F)C(=O)NCCc1ccc(C(=O)O)cc1Cl)C(C)C`, with 2.4 µM; and `CC(C)[C@H](O)C(=O)N1C[C@H](c2ccccc2)C[C@H]1C(=O)N[C@@H](CC(F)F)C(=O)NCCc1c(F)cc(C(=O)O)cc1F`, with 18 µM. Under `CC(C)[C@H](O)C(=O)N1C[C@H](OCc2ccccc2Cl)C[C@H]1C(=O)N[C@@H](CC(F)F)C(=O)NCCc1c(F)cc(C(=O)O)cc1F` stands greater than 100 µM. With `O=C(O)c1cc(F)c(CCNC(=O)[C@H](CC(F)F)NC(=O)[C@@H]2C[C@@H](c3ccccc3)CN2C(=O)C(O)C2CC2)c(F)c1` (stereo partly specified), the half-inhibitory concentration (IC50) was greater than 100 µM.

Take `CC(C)CC(=O)N1C[C@H](c2ccccc2)C[C@H]1C(=O)N[C@@H](CC(F)F)C(=O)NCCc1c(F)cc(C(=O)O)cc1F`: the half-inhibitory concentration (IC50) came out at 58 µM.

Turning to `O=C(O)c1cc(F)c(CCNC(=O)[C@H](CC(F)F)NC(=O)[C@@H]2C[C@@H](c3ccccc3)CN2C(=O)[C@H](O)c2ccccc2)c(F)c1`, the IC50 was greater than 100 µM. Under `CC(C)(C)[C@H](O)C(=O)N1C[C@H](c2ccccc2)C[C@H]1C(=O)N[C@@H](CC(F)F)C(=O)NCCc1c(F)cc(C(=O)O)cc1F` stands 18 µM. Then `CC(C)[C@@H](O)C(=O)N1C[C@H](c2ccccc2)C[C@H]1C(=O)N[C@@H](CC(F)F)C(=O)NCCc1c(F)cc(C(=O)O)cc1F`, with greater than 100 µM.

(Values after ChEMBL document CHEMBL1147550, “Capped dipeptide phenethylamide inhibitors of the HCV NS3 protease” (Bioorg Med Chem Lett, 2004).)
